In paper PMC8484168 (Cancer Chemotherapy and Pharmacology, 2021):
Where two headings read alike, the source gives them in different places.

Legend:
[1] = Plasma PK of rosuvastatin and oral contraceptives with and without rucaparib (phase 1 DDI study, noncompartmental analysis); format: in vivo, human; settings: for Cmax / AUC(0-inf) / AUC(0-t) / half-life / Vd/F / Tmax: human; for Cmax / AUC(0-inf) / AUC(0-t) / half-life / Vd/F: po; for Tmax: read-out: tmax, Median (range); for change of median tmax with rucaparib: with vs without rucaparib; for detected in human plasma up to (postdose): 30 µg dose, LC–MS/MS
From the text: This was a 2-part, phase 1, open-label, 2-arm DDI study in patients with advanced solid tumors. In Part 1 of the study, patients were screened for eligibility from day − 28 to − 2 and visited the study site from day − 1 to 23 (Fig. 1). […] To check steady-state plasma concentrations for rucaparib, a blood sample was collected prior to the dosing of rucaparib on days 5, 9, 11, 15, and 19–23.
Other PK parameters, calculated for the probe drugs, included half-life (t1/2), tmax, apparent total clearance of drug after oral administration (CL/F), and apparent volume of distribution during terminal phase (VZ/F). The PK parameter calculated for rucaparib at steady state was trough plasma concentration (Cmin). PK parameters were calculated by noncompartmental analysis using Phoenix WinNonlin, version 8.1 (Certara, Princeton, NJ).
Details are provided in Online Resource 1.
The LC consisted of a Gemini NX C18 column (2 x 50 mm, 3 μm, Phenomenex, Torrance, CA) and was eluted with a gradient consisting of 0.1% acetic acid in water as mobile phase A and with 100% acetonitrile as mobile phase B at an initial flow rate of 0.5 mL/min at room temperature. The MS/MS consisted of an AB SCIEX API5000 system and was operated with Analyst version 1.6.2 in TurboIonSpray and positive ionization mode. […] The concentration range for quantitation was 0.1–100 ng/mL.
Separation between potential metabolites and interfering endogenous compounds was achieved by ultra-high performance liquid chromatography with a CSH C18 column at 40°C and gradient elution using 0.1% formic acid in water as mobile phase A and acetonitrile as mobile phase B, operating at an initial flow rate of 0.800 mL/min. A triple quadrupole mass spectrometer (Triple Quad 6500) equipped with a turbo ion spray source was used for detection in positive ion mode.

[2] = DDI analysis: geometric mean ratio of probe drug PK with versus without rucaparib; format: in vivo, human; settings: Arm B; steady-state rucaparib
From the text: The DDI analysis population included patients who completed the DDI assessment per protocol and had sufficient PK data to calculate Cmax and AUC of the probe drug with and without rucaparib. […] With the assumption that intrapatient PK variability would be 35% for the probe drugs, a total enrollment of 32 patients was planned for this study: 16 for Arm A and 16 for Arm B. […] The primary PK parameters were natural log-transformed before assessment with a paired t test.

[3] = plasma, 600 mg, with rucaparib 600 mg BID (day 19), single oral dose, plasma, read-out: AUC0–inf, GM (%CV)
[4] = plasma, 600 mg, with rucaparib 600 mg BID (day 19), single oral dose, plasma, read-out: AUC0–inf, Mean (SD)
[5] = plasma, 600 mg, with rucaparib 600 mg BID (day 19), single oral dose, plasma, read-out: AUC0–inf, Median (range)
[6] = plasma, 600 mg, with rucaparib 600 mg BID (day 19), single oral dose, plasma, read-out: AUC0–last, GM (%CV)
[7] = plasma, 600 mg, with rucaparib 600 mg BID (day 19), single oral dose, plasma, read-out: AUC0–last, Mean (SD)
[8] = plasma, 600 mg, with rucaparib 600 mg BID (day 19), single oral dose, plasma, read-out: AUC0–last, Median (range)
[9] = plasma, 600 mg, with rucaparib 600 mg BID (day 19), single oral dose, plasma, read-out: Cmax, GM (%CV)
[10] = plasma, 600 mg, with rucaparib 600 mg BID (day 19), single oral dose, plasma, read-out: Cmax, Median (range)
[11] = plasma, 600 mg, with rucaparib 600 mg BID (day 19), single oral dose, plasma, read-out: t1/2, GM (%CV) (converted)
[12] = plasma, 600 mg, with rucaparib 600 mg BID (day 19), single oral dose, plasma, read-out: t1/2, Mean (SD) (converted)
[13] = plasma, 600 mg, with rucaparib 600 mg BID (day 19), single oral dose, plasma, read-out: t1/2, Median (range) (converted)
[14] = plasma, 600 mg, with rucaparib 600 mg BID (day 19), single oral dose, read-out: VZ/F, GM (%CV)
[15] = plasma, 600 mg, with rucaparib 600 mg BID (day 19), single oral dose, read-out: VZ/F, Mean (SD)
[16] = plasma, 600 mg, with rucaparib 600 mg BID (day 19), single oral dose, read-out: VZ/F, Median (range)
[17] = plasma, without rucaparib (day 1), single oral dose, plasma, PK analysis population, read-out: Cmax, Mean (SD)
[18] = plasma, without rucaparib (day 1), single oral dose, plasma, read-out: AUC0–inf, GM (%CV)
[19] = plasma, without rucaparib (day 1), single oral dose, plasma, read-out: AUC0–inf, Mean (SD)
[20] = plasma, without rucaparib (day 1), single oral dose, plasma, read-out: AUC0–inf, Median (range)
[21] = plasma, without rucaparib (day 1), single oral dose, plasma, read-out: AUC0–last, Mean (SD)
[22] = plasma, without rucaparib (day 1), single oral dose, plasma, read-out: AUC0–last, Median (range)
[23] = plasma, without rucaparib (day 1), single oral dose, plasma, read-out: Cmax, GM (%CV)
[24] = plasma, without rucaparib (day 1), single oral dose, plasma, read-out: Cmax, Median (range)
[25] = plasma, without rucaparib (day 1), single oral dose, plasma, read-out: t1/2, GM (%CV) (converted)
[26] = plasma, without rucaparib (day 1), single oral dose, plasma, read-out: t1/2, Mean (SD) (converted)
[27] = plasma, without rucaparib (day 1), single oral dose, plasma, read-out: t1/2, Median (range) (converted)
[28] = plasma, without rucaparib (day 1), single oral dose, read-out: VZ/F, GM (%CV)
[29] = plasma, without rucaparib (day 1), single oral dose, read-out: VZ/F, Mean (SD)
[30] = plasma, without rucaparib (day 1), single oral dose, read-out: VZ/F, Median (range)
[31] = without rucaparib (day 1), single oral dose, plasma
[32] = with rucaparib 600 mg BID (day 19), single oral dose
[33] = without rucaparib (day 1), single oral dose

SMILES	AUC(0-inf) [1, 3] [ng·h/mL]	AUC(0-inf) [1, 4] [ng·h/mL]	AUC(0-inf) [1, 5] [ng·h/mL]	AUC(0-t) [1, 6] [ng·h/mL]	AUC(0-t) [1, 7] [ng·h/mL]	AUC(0-t) [1, 8] [ng·h/mL]	Cmax [1, 9] [ng/mL]	Cmax [1, 10] [ng/mL]	half-life [1, 11] [h]	half-life [1, 12] [h]	half-life [1, 13] [h]	Vd/F [1, 14] [L]	Vd/F [1, 15] [L]	Vd/F [1, 16] [L]	Cmax [1, 17] [ng/mL]	AUC(0-inf) [1, 18] [ng·h/mL]	AUC(0-inf) [1, 19] [ng·h/mL]	AUC(0-inf) [1, 20] [ng·h/mL]	AUC(0-t) [1, 21] [ng·h/mL]	AUC(0-t) [1, 22] [ng·h/mL]	further results
C#C[C@]1(O)CC[C@H]2[C@@H]3CCC4=CC(=O)CC[C@@H]4[C@H]3CC[C@@]21CC [levonorgestrel]	102	109	87.3	77.5	86	80.4	3.43	3.48	46.6	50	43.6	77.6	82.8	85.6	3.32	64	72.7	55.4	59.7	45.3	Cmax ([1]; plasma, 600 mg, with rucaparib 600 mg BID (day 19), single oral dose, plasma, PK analysis population, read-out: Cmax, Mean (SD)): 3.77 ng/mL; AUC(0-t) ([1]; plasma, without rucaparib (day 1), single oral dose, plasma, read-out: AUC0–last, GM (%CV)): 52.9 ng·h/mL; Cmax [1, 23]: 3.17 ng/mL; Cmax [1, 24]: 3.29 ng/mL; half-life [1, 25]: 38.5 h; half-life [1, 26]: 41.1 h; half-life [1, 27]: 37.1 h; Vd/F [1, 28]: 103 L; Vd/F [1, 29]: 113 L; Vd/F [1, 30]: 114 L; Tmax ([1]; with rucaparib 600 mg BID (day 19), single oral dose, plasma): 1.5 h; Tmax [1, 31]: 1.51 h; CL/F, Mean (SD) [1, 32]: 1.57 (0.531) L/h; CL/F, Median (range) [1, 32]: 1.72 (0.701–2.39) L/h; change of median tmax with rucaparib [1]: remained the same; CL/F, Mean (SD) [1, 33]: 2.57 (1.01) L/h; CL/F, Median (range) [1, 33]: 2.71 (0.891–3.84) L/h; AUC increase with rucaparib [2]: ~1.6 fold; Cmax increase with rucaparib [2]: < 1.25 fold
C#C[C@]1(O)CC[C@H]2[C@@H]3CCc4cc(O)ccc4[C@H]3CC[C@@]21C [ethinylestradiol]	1.41	1.49	1.37	1.15	1.24	1.18	0.0784	0.0756	24.8	30	27.1	653	684	620	0.0792	0.962	0.994	1	0.804	0.775	detected in human plasma up to (postdose) ([1]; with rucaparib): ≤ 72 h; detected in human plasma up to (postdose) ([1]; without rucaparib): up to 48 h; Cmax [1, 23]: 0.0732 ng/mL; Cmax [1, 24]: 0.0734 ng/mL; half-life [1, 25]: 15.9 h; half-life [1, 26]: 17 h; half-life [1, 27]: 18.1 h; Vd/F [1, 28]: 772 L; Vd/F [1, 29]: 792 L; Vd/F [1, 30]: 772 L; Tmax [1, 31]: 1 h; Cmax, Mean (SD) ([1]; with rucaparib 600 mg BID (day 19), single oral dose, plasma, PK analysis population): 0.0893 (0.0443) ng/mL; change of median tmax with rucaparib [1]: 0.5 h; AUC increase with rucaparib [2]: approximately 1.4 fold; Cmax increase with rucaparib [2]: < 1.25 fold
